Laboratory results taken from patent publication US11331368B2, “Angiotensin receptor agonists and uses thereof” (Monash University, priority 2017, dated 2022).
Entries after “also recorded” stand apart in the source; their conditions may differ. Where two headings read alike, the source gives them in different places. Square brackets hold non-standard residues; d marks the D form. Primed or numbered codes have the meaning given here. Ends that are not written are not given here. βVal″ = beta-form valine

Key:
[1] = system: human cardiac fibroblasts; experiment: TGF-β1-induced collagen production in human cardiac fibroblasts (Western blot); assay type: cell-based; settings: co-treated with TGF-β1 for 3 days, increasing concentrations up to 1 μM
Procedure: D) Human cardiac fibroblasts (HCFs) were treated with TGFβ1 to induce a pro-fibrotic phenotype state in cell culture, exemplified by increased collagen-1 production, measured by Western blot. HCFs were treated with TGFβ1 alone, or in the presence of an AT2R agonist for 3 days, and the ability of AT2R agonists to inhibit TGFβ1-induced collagen-1 production was measured.
Commercially available human cardiac fibroblasts (HCF, Catalog #6300, Sciencell, Calif., USA) were grown in T75 flask maintained in an incubator at 37° C., 5% CO2. Complete media composition: M199 media (#11150-059, life technologies)+10% FBS (#10437-028, life technologies)+1% Fibroblast Growth Supplement-2 (#2382, ScienCell)+1% penicillin/streptomycin 10,000 U/ml antibiotics (#15140-122, Life Technologies). Fresh complete media was replenished every alternate day until culture reached 70% confluence in which media is replenished daily until it reached approximately 90% confluence in order to passage/subculture. To subculture, media was discarded and culture was rinsed with warm PBS. After which, culture was detached using warm 0.05% Trypsin+EDTA with gentle swirling of flask to make sure cells were not adherent to surface of flask. Trypsin was then neutralized with complete media and suspension was then transferred into a new falcon tube and centrifuged at 1000 rpm for 5 minutes. Supernatant was discarded and pellet of cells were resuspended with 5 ml of complete media, followed by cell counting. For subculturing/passaging, 1 million HCFs are placed into a T75 flask. For Picrosirius Red (PSR) staining or immunofluorescence experiments, 100 k cells were loaded per well in a 24 well plate lined with round coverslips. […]
Once treatment is complete, cells were washed with warm PBS and detached using Accutase (A6964, Sigma), with 5 minutes incubation at 37° C. […] The supernatant (˜20 ul) was transferred to a new tube and protein concentrations were measured using Biorad Lowry protein assay. Protein quantification of respective markers were performed via standard western blot analysis. […]

human AT2R = target: T1, human AT2R (Homo sapiens, UniProt P50052); experiment: Competition radioligand binding (125I-Sar1-Ile8-AngII) in AT2R-transfected HEK-293 cells; settings: for binding at AT2R (displacement of 125I-Sar1-Ile8-AngII), in words: transfected HEK-293 cells
T1 construct: expressed in transfected cells
T1 sequence (P50052 1-363): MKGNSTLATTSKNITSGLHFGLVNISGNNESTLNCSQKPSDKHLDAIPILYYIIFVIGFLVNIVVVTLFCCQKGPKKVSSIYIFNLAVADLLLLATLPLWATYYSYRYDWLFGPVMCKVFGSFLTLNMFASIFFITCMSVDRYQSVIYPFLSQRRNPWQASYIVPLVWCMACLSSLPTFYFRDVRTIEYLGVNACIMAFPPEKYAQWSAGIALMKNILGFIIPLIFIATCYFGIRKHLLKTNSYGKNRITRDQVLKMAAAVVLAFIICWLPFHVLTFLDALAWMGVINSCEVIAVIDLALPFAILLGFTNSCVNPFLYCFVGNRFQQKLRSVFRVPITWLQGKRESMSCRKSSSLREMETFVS

human AT1R = target: T2, human AT1R (Homo sapiens, UniProt P30556); experiment: Competition radioligand binding (125I-Sar1-Ile8-AngII) in AT1R-transfected HEK-293 cells
T2 construct: expressed in transfected cells
T2 sequence (P30556 1-359): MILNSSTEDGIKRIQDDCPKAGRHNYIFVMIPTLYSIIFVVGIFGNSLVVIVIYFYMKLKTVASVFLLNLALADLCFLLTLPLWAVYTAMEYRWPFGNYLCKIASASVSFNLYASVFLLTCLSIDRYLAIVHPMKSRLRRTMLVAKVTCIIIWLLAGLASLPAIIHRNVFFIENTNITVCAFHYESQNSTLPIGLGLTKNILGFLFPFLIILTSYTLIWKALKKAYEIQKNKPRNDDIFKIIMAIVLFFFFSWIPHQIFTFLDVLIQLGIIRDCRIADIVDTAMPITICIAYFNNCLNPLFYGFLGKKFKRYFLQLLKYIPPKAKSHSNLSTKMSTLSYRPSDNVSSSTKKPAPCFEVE

[2] = system: human cardiac fibroblasts; experiment: Pro-fibrotic effect of Ang II in human cardiac fibroblasts; assay type: cell-based
Procedure: Commercially available human cardiac fibroblasts (HCF, Catalog #6300, Sciencell, Calif., USA) were grown in T75 flask maintained in an incubator at 37° C., 5% CO2. Complete media composition: M199 media (#11150-059, life technologies)+10% FBS (#10437-028, life technologies)+1% Fibroblast Growth Supplement-2 (#2382, ScienCell)+1% penicillin/streptomycin 10,000 U/ml antibiotics (#15140-122, Life Technologies). Fresh complete media was replenished every alternate day until culture reached 70% confluence in which media is replenished daily until it reached approximately 90% confluence in order to passage/subculture. To subculture, media was discarded and culture was rinsed with warm PBS. After which, culture was detached using warm 0.05% Trypsin+EDTA with gentle swirling of flask to make sure cells were not adherent to surface of flask. Trypsin was then neutralized with complete media and suspension was then transferred into a new falcon tube and centrifuged at 1000 rpm for 5 minutes. […]

[3] = system: male FVB/N mice on high salt diet, heart; experiment: High salt (5%) diet intervention model, heart; assay type: in vivo, mouse
Procedure: (§1) C) In the intervention (or reversal) model, male FVB/N mice were treated with selective AT2Rs agonists after the establishment of cardiovascular disease using a high salt diet, in order to reverse cardiovascular pathologies. In some experiments, the ACE inhibitor captopril (dose) or the ARB candesartan cilexetil (dose) were given for 4 weeks in drinking water. Organs examined included heart, kidney and liver and these were compared to either untreated mice or high salt-fed mice that were treated with saline.
A high-salt diet (5% salt) model is a clinically relevant and disease-reversal model which can replicate the high salt intake by humans which is currently a growing problem in the developed countries. High salt intake induces changes in the cardiovascular system and induces remodelling and fibrosis in the heart, kidney and liver.
(§2) Mice were placed on either a normal rodent diet (0.35% NaCl) which acted as control or a high salt diet (5% sodium in food chow) for 8 weeks. After 4 weeks, mice were also treated subcutaneously (via osmotic mini-pump) with either saline or an AT2R agonist (75 pmol/kg/min subcutaneously) for 4 weeks. Mice continued to be fed a high salt diet whilst receiving these treatments.
All mice which underwent surgery were anaesthetized with Isoflurane (Isorrane) (5% induction and 2.5% maintenance) and an incision made in the midscapular region through which osmotic minipumps (Alzet model 2004, Alza Corp) were inserted for subcutaneous drug administration. The incision area was sutured with 6/0 DY silk (Dynek Pty Ltd) and antibiotic powder applied (Cicatrin, Pfizer) followed by intramuscular injection of the analgesic Cartrophen (0.1 ml of a 1.5 mg/ml stock solution; Biopharm Australia). Systolic blood pressure (SBP) was measured using non-invasive tail-cuff plethysmography apparatus (MC4000 Blood Pressure Analysis System, Hatteras Instrument Inc) before drug treatment (week 0), and then fortnightly. At the end of the 8 week treatment period mice were weighed before being killed by overdose of isoflurane inhalation and cervical dislocation.
To measure collagen deposition, frozen sections of heart, kidney or aorta (all 5 μm thickness) were air dried for 10 minutes and were brought through 3 times xylene (2 minutes each), and 3 times absolute alcohol washes before being rinsed in tap H2O for 30 seconds. Staining with an optimal concentration of picrosirius red (in this instance 0.05% picrosirius red diluted in saturated picric acid) was performed and left for an hour. Sections were then rinsed in water and differentiated in 0.01M HCl for 2 minutes, followed by dehydration via 3 times absolute alcohol washes. Then, slides were brought through 3 times xylene washes before being cover slipped according to standard histological techniques using DPX as the mounting medium. Images were taken under ×20 magnification, using bright field (Olympus, BX51) and circularized polarized light microscopy (DM IRB, Leica) while percentage of positive interstitial collagen staining per total field of view was quantified using ImageJ 1.46 software (Java, NIH), and averaged out from a total of eight views as the final percentage collagen content in a particular animal.
Immunostaining was performed on 5 μm thick transverse frozen heart sections. These sections were air dried and fixed in ice-cold acetone for approximately 15 minutes before washing with 0.01M PBS buffer (3×10 minutes). Sections were then incubated with 10% goat serum in 0.01M PBS for 30 minutes to reduce non-specific binding. If the primary antibody is raised in goat, this pre-blocked medium is substituted with 5% BSA in PBS and Triton-X. Next, blocking buffers were removed and the primary antibody to respective markers were applied overnight at room temperature based on the following dilution and origin of the antibodies: α-SMA (1:500, Abcam), Vimentin (1:500, Santa Cruz), P-IκBα (1:200, Cell Signalling), F4/80 macrophage (1:100, Serotec). […]

mouse aortae = experiment: Vasorelaxation of pre-contracted mouse aortae; settings: 0.1-1000 nM, pre-contracted with U46619
Excerpt: FIG. 17: The selective AT2R ligands, β-Pro^7-Ang III and D-Arg^2-β-Pro^7-Ang III, are functional agonists in vasculature.

[4] = system: male FVB/N mice on high salt diet, liver; experiment: High salt (5%) diet intervention model, liver; assay type: in vivo, mouse; settings: weeks 5-8; peptides 75 pmol/kg/min s.c.; Cand 2 mg/kg/day, captopril 3 mg/kg/day
Procedure: as §1, §2
Liver sections used either picrosirius red staining or Masson's trichome staining as described above. Higher concentrations of picrosirius red were often used under polarized light microscopy. The liver was removed and sectioned with half of the liver placed in 10% formalin and the rest frozen in liquid nitrogen before being stored in ˜80° C. freezer for future use. Formalin fixed, paraffin embedded livers were sectioned at thickness of 4 μm and were stained with Masson's trichrome according to standard procedures for analysis of liver fibrosis. […] Sections were re-fixed in Bouin's solution for 1 hour at 56° C. to improve staining quality then rinsed in running tap water for 5-10 minutes to remove yellow colour. Following this, sections were stained in Weigert's iron hematoxylin working solution for 10 minutes. Rinsed in running warm tap water for 10 minutes. Washed in distilled water. Stained in Biebrich scarlet-acid fuchsin solution for 10-15 minutes.
Washed in distilled water. Differentiated in phosphomolybdic-phosphotungstic acid solution for 10-15 minutes or until collagen was no longer red. Sections were transferred directly (without rinse) to aniline blue solution and stained for 5-10 minutes. Rinsed briefly in distilled water and differentiated in 1% acetic acid solution for 2-5 minutes. Washed in distilled water. […] Mounted with DPX mounting medium. Quantification of liver fibrosis was performed using images captured with the Aperio scanner (Monash Histology Platform, Monash University), with ×5 magnification. Each liver section had 5 different fields of view photographed at this magnification. Percentage of interstitial and perivascular collagen was analysed and quantified using ImageJ 1.48 software (Java, NIH), and the percentage from 5 random fields of view were averaged for final percentage of collagen for that particular animal. All analysis of collagen expression was conducted in a blinded fashion.

CC[C@H](C)[C@H](NC(=O)[C@H](Cc1ccc(O)cc1)NC(=O)[C@@H](NC(=O)C[C@H](CCCNC(=N)N)NC(=O)[C@@H](N)CC(=O)O)C(C)C)C(=O)N[C@@H](Cc1c[nH]cn1)C(=O)N1CCC[C@H]1C(=O)N[C@@H](Cc1ccccc1)C(=O)O [βArg-Ang II, Asp-β-Arg-Val-Tyr-Ile-His-Pro-Phe]
TGF-β1-induced collagen production [1]: inhibited the TGF-β1-mediated pro-fibrotic phenotype

Ang II [reference compound]
binding at AT2R (displacement of 125I-Sar1-Ile8-AngII), in words (human AT2R): readily binds | binding at AT1R (displacement of 125I-Sar1-Ile8-AngII), in words (human AT1R): readily binds | myofibroblast differentiation (α-SMA expression) ([2]; HCFs treated with Ang II): caused myofibroblast differentiation | protein expression of collagen ([2]; varying concentrations for 3 days, Western blot): dose-dependent increases

D-Arg-Val-Tyr-Ile-His-β-Pro-Phe [D-Arg β-Pro-Ang III]
Fold AT2R selectivity (human AT2R; AT2R over AT1R, Table 3): >300,000 fold | AT2R/AT1R selectivity ratio (human AT2R; approximate or conservatively estimated): > 300,000 fold | binding at AT2R (displacement of 125I-Sar1-Ile8-AngII), in words (human AT2R): high affinity | myofibroblast differentiation in heart (α-SMA) ([3]; 75 pmol/kg/min s.c., weeks 5-8): fully reversed the high salt-induced myofibroblast differentiation | cardiac fibrosis (picrosirius red) ([3]; weeks 5-8 of high salt diet, peptides 75 pmol/kg/min s.c. mini-pump, Cand 2 mg/kg/day, captopril 3 mg/kg/day in drinking water): reversed established cardiac fibrosis | binding at AT1R (displacement of 125I-Sar1-Ile8-AngII), in words (human AT1R; listed as D-Arg^2-β-Pro^7-Ang III): bind poorly; also recorded: did not substantially displace | vasorelaxation of pre-contracted aortae (mouse aortae): concentration-dependent vasorelaxation | liver fibrosis (picrosirius red, polarized light) [4]: normalised liver fibrosis | liver steatosis (Oil Red O) [4]: significantly reduced steatosis

β-Val^3-Ang II: β-substituted Ang II peptide which only has ~50-fold AT2R:AT1R selectivity (DR[βVal″]YIHPF)
TGF-β1-induced collagen production [1]: failed to inhibit
